We go through eight molecules from US20130109581A1, “POSITIVELY CHARGED SPECIES AS BINDING REAGENTS IN THE SEPARATION OF PROTEIN AGGREGATES FROM MONOMERS” (priority 2009, published 2013).

Read-outs that look alike come from different tables or passages of the source.

In one assay the target is PrP^Sc (Mesocricetus auratus, UniProt P04273).
The target in assay [1] is T1, oligomeric beta amyloid 1-42 (globulomer) (Homo sapiens, UniProt P05067).
T1 construct: beta amyloid (1-42) was monomerized with incubation in hexafluoroisopropanol
The experiment in a line: Misfolded Protein Assay: capture of globulomer spiked into CSF (Example 2). Type of assay: binding. To be noted: globulomer-spiked CSF vs normal CSF; reagent on Dynal M270 beads. The method, then: To assess the ability of these reagents to capture protein aggregates, the previously described Misfolded Protein Assay or MPA (Lau et al., 2007, PNAS, 104: 11551) was used (FIG. 3). In this assay, the capture reagent of interest is attached to beads which are incubated with a sample of interest containing a mixture of normal monomeric and aggregated proteins to allow for capture and then washed to remove unbound material. After this enrichment step, an elution buffer is used to dissociate the captured material from the beads as well as to denature any aggregates. The eluted material is then applied to a sandwich ELISA that is specific for the protein of interest. Strong aggregate-binding reagents acting as effective capture reagents show a high signal from the sample containing a mixture of monomers and aggregates, but not from the control sample, which contains only physiologic levels of monomeric protein.
Beads displaying carboxylic acids were treated with EDC and BMPH to create maleimide-displaying beads, to which thiolated peptides (or other thiolated organic molecules) were added through a Michael addition reaction. Dynal M270 magnetized beads (30 mg/mL bead) displaying carboxylic acids were vortexed and placed into a 15 ml falcon tube. The tube was placed into a magnet, and the supernatant removed. The beads were washed 2 times with 0.1 M MES buffer, pH 5, and then the washing buffer was removed. The coupling solution (33 mM BMPH, 130 mM EDC in MES buffer) was added, and the tube was rocked for 30 minutes at room temperature. After washing in 1×MES, 1× Tris, pH 7.5, the beads were quenched with Tris buffer (50 mM Tris buffer, pH 7.5) for 15 minutes. The beads were then washed 2 times in phosphate buffer and added to 5 mM thiolated ligand in degassed phosphate. The beads were rotated for 21 hours, then washed in 0.1 M phosphate buffer, pH 7, 1×PBS, and stored.
To prepare the globulomer, beta amyloid (1-42) was monomerized with incubation in hexafluoroisopropanol. The hexafluoroisopropanol was removed by vacuum centrifugation. DMSO, PBS, and 2% SDS were then added to the sample. The sample was vortexed and sonicated and then incubated at 37° C. After 6 hours, the sample was diluted with water, vortexed, and incubated at 37° C. for an additional 19 hours. The sample was ultracentrifuged at 135000×g for 1 hour at 4° C., and the supernatant retained. The globulomers were spiked into CSF for the assay.
Aliquots of beads conjugated to various reagents were added to wells of a 96-well plate. Globulomer-spiked CSF in a Tris buffer was added to each well, and the plates were incubated for 1 hour at 37° C. with shaking. For the negative control, normal CSF was used, which is considered to contain only monomers of beta amyloid. The beads were washed with TBST wash buffer, and bound materials were eluted with a denaturing solution (typically 0.1-0.15 N NaOH). A reconditioning buffer was added to the eluate prior to beta amyloid detection via a beta amyloid (1-42) specific sandwich ELISA.
In order to determine the amount of ligand loading, amine quanitation was used. Aliquots of beads were placed in a magnet, and the supernatant removed. 80% phenol in ethanol, 0.2 mM KCN in pyridine/water, and 6% ninhydrin in ethanol was added to each tube. The aliquots were vortexed and heated for 7 minutes at 100° C. After cooling to room temperature, 60% ethanol was added. The tubes were placed in a magnet, and the absorbance of the supernatant at 570 nm was determined. The loading of the beads was determined according to Beer's law, using the extinction coefficient of 15000 M-1 cm-1.
Beads (3 ul or 15 ul) were added to samples containing 0.5 ng/mL globulomer spiked into CSF. […] For PSR1, this limit was ˜5 nmol ligand/mg bead for binding preferentially to globulomer. […]

In a further assay the target is T2, normal CSF Aβ42 (Homo sapiens, UniProt P05067).
T2 construct: reduced the detection of normal CSF Aβ42 to the background levels; from tissue; host or cells: pooled normal cerebrospinal fluid
The experiment in a line: NMPA with detergent washing: background from unspiked CSF, Abeta42. In kind it is binding. The note with it: CSF; PSR1 beads treated with detergent post capture. The method, then: Second, two neutral detergents, polyethylene glycol sorbitan monolaurate (available as TWEEN 20 from Sigma-Aldrich, St. Louis, Mo.) and n-tetradecyl-N,N-dimethyl-3-ammonio-1-propanesulfonate (available as ZWITTERGENT 3-14 from EMI) Chemicals, Gibbstown, N.J.) were used to treat the globulomer-spiked CSF samples that had been contacted with PSR1 beads. For each assay, a mixture of 30 μl of PSR1 beads (coated at about 7-12 nmol PSR1 ligand/mg DYNAL beads, which were used in this example and in the following examples unless otherwise stated) and 70 μl of 1×TBSTT was immediately pipetted into each well on the pulldown plate. The liquid was removed on a magnetic separator. Fifty micro liters of 5×TBSTT was added to each well. The beads were suspended by briefly shaking at 750 rpm. Next […] of TBSTT or CSF sample without globulomer was added to each well. The pulldown plate was sealed and incubated at 37° C. for 1 hour with shaking at 500 rpm. After incubation, the beads were washed 8 times with TBST on the plate washer. After the plate wash, residual TBST buffer was removed from the beads on the magnetic separator. The beads were then incubated with 100 μl of either TBS, 1% Tween20 or 1% Zwittergent 3-14 for 30 minutes at room temperature at 750 rpm, (followed by an additional 8 washes with TBST on the plate washer. After removing residual TBST on the magnetic separator, 20 μl of denaturing solution, typically 0.1-0.15 N NaOH, was added to the beads. The plate was covered with an aluminum foil plate sealer and incubated at 80° C. for 30 minutes with shaking at 750 rpm. After incubation, the plate was cooled to room temperature and twenty micro liters of neutralizing solution, typically 0.12-0.18 M NaH2PO4+0.4% Tween20) was added into each well and the plate was incubated at room temperature for 5 minutes with shaking at 750 rpm. […] MSD Abeta Triplex Assay was preformed according to the manufacturer's instructions.
A summary of the assay results and calculated signal/noise is shown below in Table 17.

Assay [2] addresses T3, Aβ40 aggregates in AD CSF (Homo sapiens, UniProt P05067).
T3 construct: from tissue; host or cells: pooled cerebrospinal fluid (normal or AD)
The experiment in a line: Discrimination between AD and normal CSF. Type of assay: binding. To be noted: AD CSF; detergent wash; data not shown. The protocol: The Ab42 aggregates were prepared as previously described: fibrils were prepared per Stine et al (JBC 2003, 278, p11612), globulomers were prepared per Barghorn et al (J Neurology 2005 95 p834), ADDLs were prepared per Lambert et al (PNAS 1998, 95 p6448), and ASPDs were prepared per Noguchi et al (JBC 2009 284 p32895). Normal CSF was pooled from clinically characterized non-demented patient CSF samples. AD CSF was pooled from clinically-characterized AD patient samples. Alzheimer's Disease Brain Homogenate (ADBH) was prepared by sonication of clinically diagnosed AD patient brain samples in 0.2M.sucrose (1:10 w/v).
For the capture assay (Misfolded Protein Assay), aliquots of the beads (30 ul) were added to wells of a 96 well plate, followed by 125 ul of sample in 80:20 CSF:TBSTT. The plate was sealed and incubated for 1 h at 37 C with shaking. The plate was washed with TBST and the residual buffer removed. A denaturing solution (0.1 N NaOH) was added to each well and the plate heated to 80 C. for 30 min with shaking. After cooling the plate to RT, a neutralizing buffer (0.12 M NaH2PO3-0.4% TW20,) was added and the plate shaken briefly at RT. The assay was analyzed using the triplex Mesoscale Discovery ELISA kit for Aβ. The Aβ in the samples eluted from the beads were detected per the manufacturer's protocol.
For discriminating between AD and normal CSF, pooled normal CSF or pooled Alzheimer's Disease patient CSF, were assayed per the protocol described above.

The next assay deals with Abeta 42 globulomer (Homo sapiens, UniProt P05067). Put plainly: NMPA with detergent washing after PSR1 pulldown: globulomer detection. Type of assay: binding.
For the next assay, the target named is T4, Abeta 1-42 globulomer (Homo sapiens, UniProt P05067).
T4 construct: beta amyloid (1-42) was monomerized with incubation in hexafluoroisopropanol
Put plainly: Globulomer capture assay in CSF (Example 6). In kind it is binding. The method, then: (§1) A series of new potential aggregate-specific binding reagents were designed as shown below and conjugated onto magnetic Dynal M270 beads as described in Example 2. Typically 7-12 nmol of ligand (each candidate aggregate-specific binding reagent) was coated onto 1 mg of beads.
(§2) Aliquots of the beads (typically 3 ul) were added to wells of a 96 well plate, followed by sample (with or without Abeta 1-42 globulomer (an Abeta42 oligomer model) spiked in 80:20 CSF:TBSTT, typically 125 ul). The plate was sealed and incubated for 1 hour at 37° C. with shaking. The plate was washed with aqueous solutions of detergent (typically polyethylene glycol sorbitan monolaurate and n-tetradecyl-N,N-dimethyl-3-ammonio-1-propanesulfonate) to remove ubound material and the residual buffer removed. A denaturing solution (typically 0.1-0.15 N NaOH) was added to each well and the plate heated to 80° C. for 30 min with shaking. After cooling the plate to room temperature, a neutralizing buffer (typically 0.12-0.18 M NaH2PO3 in 0.4% TWEEN20,) was added and the plate was shaken briefly at room temperature. The bead eluate was analyzed using either an Aβ42-specific ELISA or the MSD® 96-Well MULTI-SPOT® Human/Rodent [4G8] Abeta Triplex Ultra-Sensitive Assay from Meso Scale Discovery (Gaithersburg, Md.). For the Aβ42-specific assay, the samples were eluted from the beads and a detection antibody (4G8 HRP) was added to a plate bearing the Aβ42-specific antibody 12F4. The plate was incubated for 1 hour, washed, the substrate was added (SuperSignal West Femto Maximum Sensitivity Substrate from Thermo Fisher, Rockville, Md.), and the luminescence was measured. The MSD plate assay was performed in a similar fashion, according to the manufacturer's protocol.
(§3) In this experiment the preferred number of charges within a given scaffold was identified. An Ala/Lys peptide framework was utilized, where the inclusion of each Lys residue increases the peptides' net charge by +1. Six hexapeptides with increasing charge (+1→+6), AAAKAA, AAKKAA, AAKKKA, AKKKKA, AKKKKK, and KKKKKK, were prepared and conjugated on the beads. The ability of these beads to capture Abeta 1-42 globulomer spiked at 1 ng/mL into CSF was tested, and the result is shown in FIG. 25. The globulomer capture level (“42 1 ng/ml” or the closed bars) was compared to the background signal of Abeta 1-42 detected in the unspiked CSF (“42 0 ng/ml”) and the background signal of Abeta 1-40 detected in unspiked CSF (“40 0 ng/ml”) or CSF spiked with AB42 oligomers “40 1 ng/ml”. The charge density, as conjugated to the magnetic beads, of each reagent evaluated in this experiment is shown below in Table 8.

In another assay the target is T5, Abeta 1-40 monomer (Homo sapiens, UniProt P05067).
T5 construct: Abeta 1-40 monomer capture level; from tissue; host or cells: cerebrospinal fluid (matrix of the assay)
The experiment in a line: Globulomer capture assay in CSF (Example 6): Abeta 1-40 noise. Type of assay: binding. To be noted: Abeta 1-40 signal (noise), CSF samples. The method, then: as §1, §2, §3

[3] abbreviates: 0.5 ng/mL vs 0 ng/mL globulomer.
Where [4] appears, read: Abeta 42 RLU at 0.5 ng/mL over average Abeta 40 RLU.
Where [5] appears, read: CSF, PSR1 beads treated with detergent post capture.

Chain of PrP^Sc (P04273 23-231 limits assumed): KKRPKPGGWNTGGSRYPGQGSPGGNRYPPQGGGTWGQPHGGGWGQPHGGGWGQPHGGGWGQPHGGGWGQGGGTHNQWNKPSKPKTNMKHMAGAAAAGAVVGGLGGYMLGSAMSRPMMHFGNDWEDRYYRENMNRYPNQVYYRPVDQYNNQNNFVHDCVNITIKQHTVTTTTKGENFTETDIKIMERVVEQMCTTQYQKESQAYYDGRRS

With Nab-Nab-Nab-Nab-Nab-Nab [++++++], the “PrP^Sc capture signal” value on PrP^Sc was “Signal was observed with the 100 or 300 ng/mL spike levels”.
Turning to DDDDDD, the “capture of oligomers (relative light units from the Abeta ELISA)” value in assay [1] is “little enrichment of the oligomeric species”.
On to “n-Hexadecyl-N,N-dimethyl-3-ammonio-1-propanesulfonate [ZW3-16]”, for which, on normal CSF Aβ42, the “Abeta 42 RLU, 0 ng/mL Abeta 42 globulomer, Average” value is listed as 67.0 RLU. The “Abeta 40 aggregates capture S/N” value in assay [2] is “improved Abeta 40 aggregates capture S/N even more significantly in AD CSF”. For the same molecule, the “signal/noise of globulomer detection” value at Abeta 42 globulomer is recorded as “improved the signal/noise ratio for Abeta 42 globulomer detection more significantly”. On Abeta 42 globulomer (setting [3]), the “S/N Abeta 42 globulomer-spiked/unspiked” value was 10.9. For the same molecule, the “S/N Abeta 42 globulomer-spiked/Abeta 40” value on Abeta 42 globulomer (setting [4]) came out at 3.7. The “Abeta 42 RLU, 0.5 ng/mL Abeta 42 globulomer, Average” value on Abeta 42 globulomer (setting [5]) is on record as 730.7 RLU.
Turning to KKKWKW, the “capture of oligomers (relative light units from the Abeta ELISA)” value in assay [1] is reported as “increased capture efficiency relative to the corresponding peptides with aliphatic hydrophobic residues or no hydrophobic residues”.
Regarding KKKKKK, the “42:40 (signal:noise ratio)” value with Abeta 1-42 globulomer (1 ng/ml average reading, ratio of 42 to 40) is 3.3. In the assay with Abeta 1-42 globulomer (Abeta 1-42 globulomer spiked at 1 ng/mL into CSF), the “42, 1 ng/ml average reading” value is 658 RLUs. Moreover, the “capture of oligomers (relative light units from the Abeta ELISA)” value in assay [1] is on record as “significant capture”. In addition, the “40, 1 ng/ml average reading” value with Abeta 1-40 monomer turned out to be 197 RLUs.
`CCCCCCCCCCCCCCCC(=O)NCCC[N+](C)(C)CCCS(=O)(=O)[O-]` [ASB-16, Amidosulfobetain-16,3-[N,N-Dimethyl-N-(3-palmitamidopropyl)ammonio]propane-1-sulfonate]: the “Abeta 42 RLU, 0 ng/mL Abeta 42 globulomer, Average” value at normal CSF Aβ42 worked out at 95.7 RLU. Besides, at Abeta 42 globulomer, the “Abeta 42 RLU, 0.5 ng/mL Abeta 42 globulomer, Average” value is given as 788.7 RLU; the “S/N Abeta 42 globulomer-spiked/Abeta 40” value worked out at 2.8; the “S/N Abeta 42 globulomer-spiked/unspiked” value is reported as 8.2.
Regarding HHHHHH, in assay [1], the “capture of oligomers (relative light units from the Abeta ELISA)” value is “little enrichment of the oligomeric species”.
Turning to `CCCCCCCCCCCC[N+](C)(C)CC(=O)[O-]` [Empigen, N,N-Dimethyl-N-dodecylglycine betaine], the “Abeta 42 RLU, 0 ng/mL Abeta 42 globulomer, Average” value at normal CSF Aβ42 worked out at 76.7 RLU. The “S/N Abeta 42 globulomer-spiked/unspiked” value at Abeta 42 globulomer (setting [3]) is given as 8.7. Besides, the “S/N Abeta 42 globulomer-spiked/Abeta 40” value on Abeta 42 globulomer (setting [4]) is 2.6. Moreover, the “Abeta 42 RLU, 0.5 ng/mL Abeta 42 globulomer, Average” value on Abeta 42 globulomer (setting [5]) was found to be 670.3 RLU.
